Source: PubChem BioAssay (NCI)
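48-hour exposure; five concentrations; linearly interpolated endpoints. TGI: concentration producing complete growth inhibition.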

Key:
Assay in all cases: growth of human tumour cells (NCI), 48 h
BT-549 breast = test system: BT-549 breast
HCT-116 colon = test system: HCT-116 colon
SF-539 CNS = test system: SF-539 CNS
NCI-H226 lung = test system: NCI-H226 lung
PC-3 prostate = test system: PC-3 prostate
SK-OV-3 ovarian = test system: SK-OV-3 ovarian
CCRF-CEM leukemia = test system: CCRF-CEM leukemia
A549 NSCLC = test system: A549 NSCLC
HOP-62 NSCLC = test system: HOP-62 NSCLC
MCF7 breast = test system: MCF7 breast
RPMI-8226 leukemia = test system: RPMI-8226 leukemia
SN12C renal = test system: SN12C renal
NCI-H460 lung = test system: NCI-H460 lung
UACC-257 melanoma = test system: UACC-257 melanoma
MALME-3M melanoma = test system: MALME-3M melanoma
SF-268 CNS = test system: SF-268 CNS
MDA-N = test system: MDA-N
HCT-15 colon = test system: HCT-15 colon
EKVX NSCLC = test system: EKVX NSCLC
T-47D breast = test system: T-47D breast
SW-620 colon = test system: SW-620 colon
KM12 colon = test system: KM12 colon
CAKI-1 renal = test system: CAKI-1 renal
A498 renal = test system: A498 renal
COLO 205 colon = test system: COLO 205 colon
UACC-62 melanoma = test system: UACC-62 melanoma
RXF 393 renal = test system: RXF 393 renal
786-0 renal = test system: 786-0 renal
HOP-92 NSCLC = test system: HOP-92 NSCLC
DU-145 prostate = test system: DU-145 prostate
SK-MEL-5 melanoma = test system: SK-MEL-5 melanoma
MDA-MB-231 breast = test system: MDA-MB-231 breast
HCC-2998 colon = test system: HCC-2998 colon
HS 578T breast = test system: HS 578T breast
UO-31 renal = test system: UO-31 renal
OVCAR-4 ovarian = test system: OVCAR-4 ovarian
U251 CNS = test system: U251 CNS
TK-10 renal = test system: TK-10 renal
ACHN renal = test system: ACHN renal
HT29 colon = test system: HT29 colon
MDA-MB-435 = test system: MDA-MB-435
SK-MEL-28 melanoma = test system: SK-MEL-28 melanoma
OVCAR-8 ovarian = test system: OVCAR-8 ovarian
M14 melanoma = test system: M14 melanoma
SF-295 CNS = test system: SF-295 CNS
OVCAR-3 ovarian = test system: OVCAR-3 ovarian
NCI-H522 lung = test system: NCI-H522 lung
SNB-19 CNS = test system: SNB-19 CNS
NCI/ADR-RES ovarian = test system: NCI/ADR-RES ovarian
SK-MEL-2 melanoma = test system: SK-MEL-2 melanoma
LOX IMVI melanoma = test system: LOX IMVI melanoma
NCI-H23 lung = test system: NCI-H23 lung

With `CCNc1ccc2c(c1)C(=O)N(OS(C)(=O)=O)C2=O` as the compound, how does the TGI (BT-549 breast) read?
The TGI was over 100 µM.

What about the TGI (HCT-116 colon) of the same compound?
The TGI was over 100 µM.

What about the TGI (SF-539 CNS) of the same compound?
Its TGI is 51.5 µM.

And the TGI (NCI-H226 lung)?
The TGI was 97.1 µM.

And the TGI (PC-3 prostate)?
The TGI was over 100 µM.

And the TGI (SK-OV-3 ovarian)?
The TGI was over 100 µM.

And the TGI (CCRF-CEM leukemia)?
The TGI was over 100 µM.

And the TGI (A549 NSCLC)?
Its TGI is over 100 µM.

What about the TGI (HOP-62 NSCLC) of the same compound?
Its TGI is over 100 µM.

And the TGI (MCF7 breast)?
Its TGI is over 100 µM.

And the TGI (RPMI-8226 leukemia)?
Its TGI is 87.3 µM.

What about the TGI (SN12C renal) of the same compound?
Its TGI is over 100 µM.

And the TGI (NCI-H460 lung)?
Its TGI is over 100 µM.

And the TGI (UACC-257 melanoma)?
The TGI was over 100 µM.

What about the TGI (MALME-3M melanoma) of the same compound?
The TGI was over 100 µM.

What about the TGI (SF-268 CNS) of the same compound?
The TGI was over 100 µM.

And the TGI (MDA-N)?
Its TGI is over 100 µM.

What about the TGI (HCT-15 colon) of the same compound?
The TGI was over 100 µM.

And the TGI (EKVX NSCLC)?
Its TGI is over 100 µM.

What about the TGI (T-47D breast) of the same compound?
Its TGI is over 100 µM.

And the TGI (SW-620 colon)?
The TGI was over 100 µM.

What about the TGI (KM12 colon) of the same compound?
The TGI was over 100 µM.

What about the TGI (CAKI-1 renal) of the same compound?
The TGI was over 100 µM.

What about the TGI (A498 renal) of the same compound?
The TGI was over 100 µM.

And the TGI (COLO 205 colon)?
The TGI was over 100 µM.

What about the TGI (UACC-62 melanoma) of the same compound?
The TGI was over 100 µM.

What about the TGI (RXF 393 renal) of the same compound?
Its TGI is over 100 µM.

What about the TGI (786-0 renal) of the same compound?
The TGI was over 100 µM.

What about the TGI (HOP-92 NSCLC) of the same compound?
Its TGI is over 100 µM.

What about the TGI (DU-145 prostate) of the same compound?
The TGI was over 100 µM.

And the TGI (SK-MEL-5 melanoma)?
Its TGI is over 100 µM.

And the TGI (MDA-MB-231 breast)?
Its TGI is over 100 µM.

And the TGI (HCC-2998 colon)?
The TGI was over 100 µM.

What about the TGI (HS 578T breast) of the same compound?
The TGI was over 100 µM.

What about the TGI (UO-31 renal) of the same compound?
The TGI was over 100 µM.

And the TGI (OVCAR-4 ovarian)?
Its TGI is over 100 µM.

And the TGI (U251 CNS)?
The TGI was over 100 µM.

What about the TGI (TK-10 renal) of the same compound?
The TGI was over 100 µM.

And the TGI (ACHN renal)?
The TGI was over 100 µM.

What about the TGI (HT29 colon) of the same compound?
The TGI was over 100 µM.

And the TGI (MDA-MB-435)?
The TGI was over 100 µM.

What about the TGI (SK-MEL-28 melanoma) of the same compound?
Its TGI is over 100 µM.

And the TGI (OVCAR-8 ovarian)?
The TGI was over 100 µM.

And the TGI (M14 melanoma)?
The TGI was over 100 µM.

And the TGI (SF-295 CNS)?
The TGI was over 100 µM.

And the TGI (OVCAR-3 ovarian)?
Its TGI is over 100 µM.

What about the TGI (NCI-H522 lung) of the same compound?
The TGI was 34.8 µM.

What about the TGI (SNB-19 CNS) of the same compound?
The TGI was over 100 µM.

And the TGI (NCI/ADR-RES ovarian)?
Its TGI is over 100 µM.

What about the TGI (SK-MEL-2 melanoma) of the same compound?
Its TGI is over 100 µM.

What about the TGI (LOX IMVI melanoma) of the same compound?
Its TGI is over 100 µM.

What about the TGI (NCI-H23 lung) of the same compound?
Its TGI is over 100 µM.
